“Also recorded” adds a separate entry of the source.
What was measured:
[1] = tested on: NIH3T3 cells; test: Adipocyte differentiation and fat content, Oil Red O; assay type: cell-based; conditions: 10 days of differentiation
Procedure: (§1) After 10 days of differentiation, cells were fixed and stained with Oil red O. Oil red 0 was extracted from stained cells and quantified by measuring absorbance at 520 nm. B. Oil red 0 quantitation is shown as fold change relative to the 3T3-L1 sample treated with 0 μM resvratrol.
(§2) After 10 days of differentiation, fat content was assessed by Oil Red O staining, as described below. […] The results in NIH3T3 cells confirm the results obtained in C. elegans.
(§3) 3T3-L1 and NIH3T3 cells were maintained in DMEM plus 10% calf serum. Adipocyte differentiation of 3T3-L1 cells was performed as described previously (MacDougald, O. A. and Lane, M. D. (1995). Transcriptional regulation of gene expression during adipocyte differentiation. Annu. Rev. Biochem. 64, 345-373). NIH3T3 cells were induced to form adipocytes under the same conditions as 3T3-L1 cells, but with 6 days of treatment with insulin, dexamethasone, and isobutylmethylxanthine in 10% fetal calf serum after cells reach confluence. The staining of adipocytes with Oil Red-O and quantitation was performed as described previously (Ramirez-Zacarias J L, Castro-Munozledo F, Kuri-Harcuch W. Histochemistry. 1992 97(6): 493-7).

[2] = tested on: 3T3-L1 cells; test: as above; assay type: cell-based
Procedure: as §1, §2, §3

[3] = tested on: S. cerevisiae; test: Yeast replicative lifespan by micro-manipulation; assay type: cell-based
Procedure: (§4) Average lifespan for wild type, 22.9 generations, quercetin, 23.4; piceatannol.
Lifespan measurements were performed using PSY316AT MATα as previously described^35. All compounds for lifespan analyses were dissolved in 95% ethanol and plates were dried and used within 24 hours. Prior to lifespan analysis, cells were pre-incubated on their respective media for at least 15 hours. Following transfer to a new plate, cells were equilibrated on the medium for a minimum of 4 hours prior to micro-manipulating them. At least 30 cells were examined per experiment and each experiment was performed at least twice. Statistical significance of lifespan differences was determined using the Wilcoxon rank sum test. Differences are stated to be significant when the confidence is higher than 95%.

[4] = tested on: D. melanogaster; test: D. melanogaster survival (lifespan) assay; assay type: in vivo
Procedure: Survival assays were conducted independently with adult D. melanogaster in two laboratories. In the first laboratory, all trials used an yw marked wild-type strain. Larvae were reared on standard cornmeal-sugar-yeast (CSY) agar diet (cornmeal 5%, sucrose 10.5%, SAF yeast 2%, and agar 0.7%). Newly eclosed adults were placed in 1 L demography cages with approximately 75 males and 75 females. Three to four replicate 1 L demography cages were used for each treatment group in each trial. Every two days, dead flies were removed and scored, and food vials were replenished. Food vials contained cornmeal-sugar-yeast diet with SAF yeast as either 2% or 3% by weight. Test compounds in 100 μl of EtOH (or blank EtOH in controls) were mixed into melted aliquots of the adult food media to make a final concentration of 0, 10 or 100 μM. Fresh stock solutions and adult media were prepared weekly. In the second laboratory, lifespan trials were conducted with the wild type strain Canton-S, dSir2^4.5 and dSir2^5.26 (S. Smolik, University of Oregon), dSir2^17 (S. Astrom, Stockholm University, Sweden), and dSir2^KG00871 (Drosophila Stock Center, Bloomington, Ind.). Larvae for all tests were reared on standard cornmeal-sugar-yeast diet. Newly eclosed adults were incubated in plastic shell vials containing 5 ml of 15% sugar-yeast diet (15% SY) or 5% sugar-yeast (5% SY) diet (15% SY: 15% yeast, 15% sucrose, 2% agar; 5% SY: 5% yeast, 5% sucrose, 2% agar as per Ref.^20). In all trials, ˜20 males with ˜20 females were placed into each of 10 vials/treatment group. Every two days, flies were passed into new vials and dead flies were counted. […] Final compound concentrations were 0, 10, 100 or 200 μM. Fresh stock solution and adult media was prepared weekly.

[5] = molecular target: recombinant GST-Sir2 (Saccharomyces cerevisiae, UniProt P06700); test: Sir2 deacetylation assay; assay type: biochemical, S. cerevisiae
Procedure: as §4
His6-tagged recombinant SIRT1 and GST-tagged recombinant Sir2 were prepared as previously described^26. From 0.1 to 1 μg of SIRT1 and 1.5 μg of Sir2 were used per deacetylation assay (in 50 μl total reaction) as previously described^26. SIRT1 assays and certain of those for Sir2 employed the p53-382 acetylated substrate (‘Fluor de Lys-SIRT1’, BIOMOL) rather than FdL.
Themed compound libraries (BIOMOL) were used for primary and secondary screening. Most polyphenol compounds were dissolved at 10 mM in dimethylsulfoxide (DMSO) on the day of the assay. For water soluble compounds and negative controls, 1% v/v DMSO was added to the assay. In vitro fluorescence assay results were read in white ½-volume 96-well microplates (Corning Costar 3693) with a CytoFluor™ II fluorescence plate reader (PerSeptive Biosystems, Ex. 360 nm, Em. 460 nm, gain=85). HeLa cells were grown and the cellular deacetylation assays were performed and read, as above, but in full-volume 96-well microplates (Corning Costar 3595). […] Calculation of net fluorescence increases included subtraction of a blank value, which in the case of Sir2 was obtained by omitting the enzyme from the reaction and in the case of SIRT1 by adding an inhibitor (200 μM suramin or 1 mM nicotinamide) to the reaction prior to the acetylated substrate. […]

[6] = tested on: AMPK and ACC phosphorylation; test: AMPK and ACC phosphorylation in mouse embryonic fibroblasts without LKB1; assay type: cell-based; conditions: LKB1 -/- cells; 50, 100, 200 μM
Procedure: Blots were stained for the presence of P-ACC, P-AMPK, AMPK, or tubulin as indicated on the left.
Similar results were also observed in mouse embryonic fibroblast (MEFs). […] Cells in the left panel were incubated overnight without serum before harvesting; the cells on the right were not incubated under serum free conditions. […] Tubulin served as a loading control.

[7] = tested on: ribosomal DNA recombination; test: Ribosomal DNA recombination assay (loss of ADE2 marker); assay type: cell-based, S. cerevisiae

Sequence of recombinant GST-Sir2 (P06700 whole entry): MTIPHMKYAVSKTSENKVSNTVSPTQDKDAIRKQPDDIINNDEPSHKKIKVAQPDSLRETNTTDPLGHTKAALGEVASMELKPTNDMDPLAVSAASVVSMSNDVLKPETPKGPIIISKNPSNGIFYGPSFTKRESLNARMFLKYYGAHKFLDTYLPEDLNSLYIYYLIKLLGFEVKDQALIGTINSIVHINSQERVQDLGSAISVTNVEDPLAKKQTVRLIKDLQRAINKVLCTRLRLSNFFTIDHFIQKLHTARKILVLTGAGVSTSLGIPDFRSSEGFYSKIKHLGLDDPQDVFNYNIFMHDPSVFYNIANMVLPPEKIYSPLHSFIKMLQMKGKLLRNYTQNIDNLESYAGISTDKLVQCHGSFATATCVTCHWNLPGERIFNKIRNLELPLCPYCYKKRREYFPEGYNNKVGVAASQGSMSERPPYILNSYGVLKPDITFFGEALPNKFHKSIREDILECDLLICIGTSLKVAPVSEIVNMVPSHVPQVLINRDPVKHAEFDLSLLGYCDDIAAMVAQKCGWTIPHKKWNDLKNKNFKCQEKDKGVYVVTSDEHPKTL

## Oc1ccc(/C=C/c2cc(O)cc(O)c2)cc1 [Resveratrol, 3,5,4′-Trihydroxy-trans-stilbene]
[1]
  Concentrations that decreased the quantity of cellular fat: ≥ 25 µM
[2]; 10 days of differentiation
  Concentrations that decreased the quantity of cellular fat: ≥ 25 µM
[2]; resveratrol-treated cells
  PPARγ expression: did not show an increase; also recorded: marked decrease
[3]; glucose-restricted+resveratrol (CR+R)
  Average lifespan: 39.9 generations
[3]; growth on resveratrol 10 μM, wild type untreated 21.0
  Average lifespan: 35.7 generations
[3]; growth on resveratrol 100 μM, wild type untreated 21.0
  Average lifespan: 29.4 generations
[3]; growth on resveratrol 500 μM, wild type untreated 21.0
  Average lifespan: 29.3 generations
[3]; pnc1Δ+resveratrol, pnc1Δ 19.2
  Average lifespan: 33.1 generations
[3]; sir2Δ+resveratrol, sir2Δ 9.9
  Average lifespan: 10.0 generations
[3]; wild type+resveratrol, wild type untreated 19.0
  Average lifespan: 37.8 generations
[4]; Canton-S/dSir2 KG0087, maximum
  Lifespan increase: up to 17%
[4]; dSir2 4.5/5.26 (no functional dSir2) or dSir2 17/KG00871 (severely decreased), 100 μM
  Lifespan extension (in words): failed to extend lifespan
[4]; flies homozygous for a hypomorphic dSir2 allele
  Increase of longevity (in words): small but statistically significant amount
[4]; restricted diet
  Longevity under restricted diet: neither resveratrol nor fisetin further increased longevity
[4]; wild type strains, males and females, independent tests, maximum
  Lifespan extension: up to 29%
[5]
  Concentrations at which inhibition was seen: > 100 µM
  Optimum concentration of activator: 2 to 5 µM
[6]
  AMPK and ACC phosphorylation: upregulation of both AMPK and ACC phosphorylation
[7]; in the presence of the Sir2 inhibitor nicotinamide
  Effect on rDNA recombination: decreased
[7]; sir2 strain
  Effect on rDNA recombination: does not suppress
